From patent US20200308539A1, “AFFINITY-TAGGED PHOTOSWITCHES AND METHODS OF USE THEREOF” (The Regents of the University of California, priority 2017, published 2020)

Key:
mGluR5 [1] = assay: Single molecule FRET (smFRET) of SNAP-mGluR5 dimers, TIRF microscopy; format: biochemical; conditions: 0.8 mM glutamate; absence of ligand ~0.5
Description: (§1) However, the goal was to target the native, unmodified proteins in cells, tissues or the intact organism, and this would require the affinity moiety to attach directly to the target protein, something that could impact function of the target protein. […] This notion was tested by asking whether there would be a functional impact of nanobody binding to an mGluR. For this purpose, mGluR5 was selected. mGluR5 is a Gq-coupled receptor whose activation stimulates phospholipase C to generate IP3 and trigger the release of calcium from internal stores, which could detect with the calcium indicator FLUO-4 that was loaded into the cells in its AM ester form. […] The activation of the receptor by NB-8260 could be directly detected using single molecule fluorescence resonance energy transfer (smFRET). SNAP-mGluR5 dimers labeled in HEK293 cells with a mixture of FRET donor and acceptor (green and red) BG dyes were isolated by cell lysis and immune-purified and immobilized at low density on a passivated glass surface (FIG. 6A) for total internal reflection fluorescence (TRIF) microscopy. Individual spots containing both the green and red dye (i.e. one on each subunit of the dimer) were selected for analysis and FRET levels measured: i) in the absence of ligand; ii) in 0.8 mM glutamate; iii) in the presence of a nanobody; or iv) in a combination of 0.8 mM glutamate and the nanobody. […]

mGluR5 [2] = target: T1, mGluR5 (Homo sapiens, UniProt P41594); assay: Calcium waves (FLUO-4) in HEK293 cells expressing mGluR5; format: cell-based; conditions: HEK293 cells expressing mGluR5, FLUO-4
T1 construct: expressed in transfected cells; host or cells: HEK293 cells
T1 sequence (P41594 21-1212): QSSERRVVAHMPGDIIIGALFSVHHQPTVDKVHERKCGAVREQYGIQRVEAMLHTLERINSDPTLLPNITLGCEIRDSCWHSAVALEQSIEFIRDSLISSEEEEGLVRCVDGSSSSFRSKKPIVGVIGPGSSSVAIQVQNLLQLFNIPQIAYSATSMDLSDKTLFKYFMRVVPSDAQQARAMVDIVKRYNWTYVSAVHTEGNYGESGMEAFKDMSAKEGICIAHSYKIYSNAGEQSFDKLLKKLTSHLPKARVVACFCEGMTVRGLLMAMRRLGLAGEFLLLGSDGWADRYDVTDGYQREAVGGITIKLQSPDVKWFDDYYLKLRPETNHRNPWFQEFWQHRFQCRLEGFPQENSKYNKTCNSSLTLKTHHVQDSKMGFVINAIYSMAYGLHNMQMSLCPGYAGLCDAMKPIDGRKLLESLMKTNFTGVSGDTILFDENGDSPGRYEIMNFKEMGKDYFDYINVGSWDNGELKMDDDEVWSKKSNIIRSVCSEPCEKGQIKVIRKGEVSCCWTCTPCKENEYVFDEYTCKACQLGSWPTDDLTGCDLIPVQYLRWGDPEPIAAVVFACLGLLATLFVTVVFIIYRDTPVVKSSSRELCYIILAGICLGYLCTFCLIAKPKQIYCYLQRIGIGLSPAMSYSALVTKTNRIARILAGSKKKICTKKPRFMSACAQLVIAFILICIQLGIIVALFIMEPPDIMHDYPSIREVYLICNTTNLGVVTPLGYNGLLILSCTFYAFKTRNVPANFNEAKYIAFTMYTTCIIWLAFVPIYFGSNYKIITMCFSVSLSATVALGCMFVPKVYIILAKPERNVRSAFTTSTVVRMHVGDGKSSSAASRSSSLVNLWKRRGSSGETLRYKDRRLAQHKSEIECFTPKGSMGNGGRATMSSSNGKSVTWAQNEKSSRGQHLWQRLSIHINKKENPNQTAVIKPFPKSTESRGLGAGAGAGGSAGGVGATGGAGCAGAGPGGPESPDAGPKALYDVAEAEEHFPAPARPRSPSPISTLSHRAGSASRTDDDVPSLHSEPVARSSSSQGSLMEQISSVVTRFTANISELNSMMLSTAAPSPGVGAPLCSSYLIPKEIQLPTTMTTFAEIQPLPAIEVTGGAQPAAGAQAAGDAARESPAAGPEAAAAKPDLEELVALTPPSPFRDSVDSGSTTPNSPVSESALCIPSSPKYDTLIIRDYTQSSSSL
Description: as §1

activation of calcium waves (mGluR5 [2]): activates calcium waves
SMILES: N[C@@H](CCC(=O)O)C(=O)O [glutamate]
FRET level (mGluR5 [1]): ~0.3
